Tests used:
IL-17A : IL-17RA binding = molecular target: T1, IL-17A : IL-17RA binding (Homo sapiens, UniProt Q16552, K93Q); assay: IL-17A(FLAG-tagged):IL-17RA(His-tagged) binding disruption Eu-HTRF assay, Protocol 1; details: FLAG-IL-17A 2.5 nM at 2x final concentration; average if tested more than once
T1 construct: Name: IL-17A-Flag
Method in brief: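 IC50 came from a one-site competition fit of the acceptor/donor (665/620 nm) HTRF ratio. His-tagged IL-17RA, Eu-anti-FLAG and D2-anti-His were added after a 1 h rt compound preincubation with FLAG-tagged IL-17A dimer in PBS/0.01% Triton X-100, followed by 2 h at rt before reading.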

[1] = test system: IL-17A-induced G-CSF production in human normal keratinocyte (NHK); assay: NHK assay: IL-17A-induced G-CSF production in normal human keratinocytes; type: cell-based; details: Homo sapiens, Keratinocyte, 24 h, IL-17A 5 ng/mL, average if tested more than once
Method in brief: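 Compound titrations are first mixed with recombinant human IL-17A for 1 h at room temperature. The mixture goes onto adult normal human keratinocytes (final IL-17A 5 ng/mL, 5% FBS, 0.2% DMSO) for 24 h at 37 °C. Secreted G-CSF is then measured by HTRF and IC50 fitted.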

T1 sequence (Q16552 with tags, fused parts or gaps K93Q): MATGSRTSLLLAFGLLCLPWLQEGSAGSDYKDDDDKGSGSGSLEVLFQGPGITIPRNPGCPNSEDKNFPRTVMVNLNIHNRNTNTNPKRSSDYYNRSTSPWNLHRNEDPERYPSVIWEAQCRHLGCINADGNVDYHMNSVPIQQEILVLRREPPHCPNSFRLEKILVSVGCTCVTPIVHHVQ

Compound: C[C@@H](NC(=O)CCC(F)(F)F)c1ccc2nc([C@@H](NC(=O)c3ccnn3CCC(F)(F)F)C3CCC(F)(F)CC3)[nH]c2c1 [Example 121, N—((S)-(4,4-Difluorocyclohexyl)(6-((R)-1-(4,4,4-trifluorobutanamido)ethyl)-1H-benzo[d]imidazol-2-yl)methyl)-1-(3,3,3-trifluoropropyl)-1H-pyrazole-5-carboxamide]
- IC50 (IL-17A : IL-17RA binding): > 100 nM
- IC50 [1]: < 50 nM

Compound: C[C@@H](NC(=O)CCC(F)(F)F)c1ccc2nc([C@@H](NC(=O)c3cc(F)ccc3F)C3CCC(F)(F)CC3)[nH]c2c1 [Example 123, N—((S)-(4,4-Difluorocyclohexyl)(6-((R)-1-(4,4,4-trifluorobutanamido)ethyl)-1H-benzo[d]imidazol-2-yl)methyl)-2,5-difluorobenzamide]
- IC50 (IL-17A : IL-17RA binding): > 100 nM
- IC50 [1]: > 100 nM

Compound: C[C@H](NC(=O)CCC(F)(F)F)c1ccc2[nH]c([C@@H](NC(=O)c3ccnn3CCC(F)(F)F)C3CCC(F)(F)CC3)nc2c1 [Example 124, N—((S)-(4,4-Difluorocyclohexyl)(5-((S)-1-(4,4,4-trifluorobutanamido)ethyl)-1H-benzo[d]imidazol-2-yl)methyl)-1-(3,3,3-trifluoropropyl)-1H-pyrazole-5-carboxamide]
- IC50 (IL-17A : IL-17RA binding): > 100 nM
- IC50 [1]: > 100 nM

Compound: CC(C)n1nccc1C(=O)N[C@H](c1nc2cc([C@@H](C)NC(=O)CC(C(F)(F)F)C(F)(F)F)ccc2[nH]1)C1CCC(F)(F)CC1 [Example 125, N—((S)-(4,4-Difluorocyclohexyl)(5-((R)-1-(4,4,4-trifluoro-3-(trifluoromethyl)butanamido)ethyl)-1H-benzo[d]imidazol-2-yl)methyl)-1-isopropyl-1H-pyrazole-5-carboxamide]
- IC50 (IL-17A : IL-17RA binding): > 100 nM
- IC50 [1]: < 50 nM

Compound: C[C@@H](NC(=O)CC(C(F)(F)F)C(F)(F)F)c1ccc2[nH]c([C@@H](NC(=O)c3ccnn3CCC(F)(F)F)C3CCC(F)(F)CC3)nc2c1 [Example 126, N—((S)-(4,4-Difluorocyclohexyl)(5-((R)-1-(4,4,4-trifluoro-3-(trifluoromethyl)butanamido)ethyl)-1H-benzo[d]imidazol-2-yl)methyl)-1-(3,3,3-trifluoropropyl)-1H-pyrazole-5-carboxamide]
- IC50 (IL-17A : IL-17RA binding): > 100 nM
- IC50 [1]: 50 to 100 nM

Compound: CCn1nccc1C(=O)N[C@H](c1nc2cc([C@@H](C)NC(=O)CC(C(F)(F)F)C(F)(F)F)ccc2[nH]1)C1CCC(F)(F)CC1 [Example 127, N—((S)-(4,4-Difluorocyclohexyl)(5-((R)-1-(4,4,4-trifluoro-3-(trifluoromethyl)butanamido)ethyl)-1H-benzo[d]imidazol-2-yl)methyl)-1-ethyl-1H-pyrazole-5-carboxamide]
- IC50 (IL-17A : IL-17RA binding): 50 to 100 nM
- IC50 [1]: < 50 nM

Compound: C[C@@H](NC(=O)CCC(F)(F)F)c1ccc2[nH]c([C@@H](NC(=O)c3ccnn3CC(F)(F)F)C3CCC(F)(F)CC3)nc2c1 [Example 128, N—((S)-(4,4-Difluorocyclohexyl)(5-((R)-1-(4,4,4-trifluorobutanamido)ethyl)-1H-benzo[d]imidazol-2-yl)methyl)-1-(2,2,2-trifluoroethyl)-1H-pyrazole-5-carboxamide]
- IC50 (IL-17A : IL-17RA binding): > 100 nM
- IC50 [1]: > 100 nM

Compound: C[C@@H](NC(=O)CC(C(F)(F)F)C(F)(F)F)c1ccc2[nH]c([C@@H](NC(=O)c3ccnn3CC(F)(F)F)C3CCC(F)(F)CC3)nc2c1 [Example 129, N—((S)-(4,4-Difluorocyclohexyl)(5-((R)-1-(4,4,4-trifluoro-3-(trifluoromethyl)butanamido)ethyl)-1H-benzo[d]imidazol-2-yl)methyl)-1-(2,2,2-trifluoroethyl)-1H-pyrazole-5-carboxamide]
- IC50 (IL-17A : IL-17RA binding): > 100 nM
- IC50 [1]: 50 to 100 nM

Compound: C[C@@H](NC(=O)CC(C(F)(F)F)C(F)(F)F)c1ccc2[nH]c([C@@H](NC(=O)c3cc(F)ccc3F)C3CCC(F)(F)CC3)nc2c1 [Example 130, N—((S)-(4,4-Difluorocyclohexyl)(6-((R)-1-(4,4,4-trifluoro-3-(trifluoromethyl)butanamido)ethyl)-1H-benzo[d]imidazol-2-yl)methyl)-2,5-difluorobenzamide]
- IC50 (IL-17A : IL-17RA binding): > 100 nM
- IC50 [1]: > 100 nM

Compound: C[C@@H](NC(=O)CCC(F)(F)F)c1ccc2nc([C@@H](NC(=O)c3cccc(C#N)c3)C3CCC(F)(F)CC3)[nH]c2c1 [Example 131, 3-Cyano-N—((S)-(4,4-difluorocyclohexyl)(6-((R)-1-(4,4,4-trifluorobutanamido)ethyl)-1H-benzo[d]imidazol-2-yl)methyl)benzamide]
- IC50 (IL-17A : IL-17RA binding): > 100 nM
- IC50 [1]: > 100 nM

Compound: C[C@@H](NC(=O)CC(C(F)(F)F)C(F)(F)F)c1ccc2nc([C@@H](NC(=O)c3cccc(C#N)c3)C3CCC(F)(F)CC3)[nH]c2c1 [Example 132, 3-Cyano-N—((S)-(4,4-difluorocyclohexyl)(6-((R)-1-(4,4,4-trifluoro-3-(trifluoromethyl)butanamido)ethyl)-1H-benzo[d]imidazol-2-yl)methyl)benzamide]
- IC50 (IL-17A : IL-17RA binding): > 100 nM
- IC50 [1]: > 100 nM

Compound: Cc1nonc1C(=O)N[C@H](c1nc2cc([C@H](NC(=O)CC3CC(F)(F)C3)C3CC3)ccc2[nH]1)C1CCC(F)(F)CC1 [Example 141, N—((S)-(5-((R)-Cyclopropyl(2-(3,3-difluorocyclobutyl)acetamido)methyl)-1H-benzo[d]imidazol-2-yl)(4,4-difluorocyclohexyl)methyl)-4-methyl-1,2,5-oxadiazole-3-carboxamide]
- IC50 (IL-17A : IL-17RA binding): < 50 nM
- IC50 [1]: < 50 nM

Compound: CC(C)n1nccc1C(=O)N[C@H](c1nc2cc([C@H](NC(=O)CC3CC(F)(F)C3)C3CC3)ccc2[nH]1)C1CCC(F)(F)CC1 [Example 142, N—((S)-(5-((R)-Cyclopropyl(2-(3,3-difluorocyclobutyl)acetamido)methyl)-1H-benzo[d]imidazol-2-yl)(4,4-difluorocyclohexyl)methyl)-1-isopropyl-1H-pyrazole-5-carboxamide]
- IC50 (IL-17A : IL-17RA binding): 50 to 100 nM
- IC50 [1]: < 50 nM

Compound: O=C(CC1CC(F)(F)C1)N[C@@H](c1ccc2[nH]c([C@@H](NC(=O)c3nonc3C3CC3)C3CCC(F)(F)CC3)nc2c1)C1CC1 [Example 143, 4-Cyclopropyl-N—((S)-(5-((R)-cyclopropyl(2-(3,3-difluorocyclobutyl)acetamido)methyl)-1H-benzo[d]imidazol-2-yl)(4,4-difluorocyclohexyl)methyl)-1,2,5-oxadiazole-3-carboxamide]
- IC50 (IL-17A : IL-17RA binding): < 50 nM
- IC50 [1]: < 50 nM

Compound: O=C(CC1CC(F)(F)C1)N[C@@H](c1ccc2[nH]c([C@@H](NC(=O)c3nonc3OCC(F)F)C3CCC(F)(F)CC3)nc2c1)C1CC1 [Example 144, N—((S)-(5-((R)-Cyclopropyl(2-(3,3-difluorocyclobutyl)acetamido)methyl)-1H-benzo[d]imidazol-2-yl)(4,4-difluorocyclohexyl)methyl)-4-(2,2-difluoroethoxy)-1,2,5-oxadiazole-3-carboxamide]
- IC50 (IL-17A : IL-17RA binding): > 100 nM
- IC50 [1]: < 50 nM

Compound: Cc1nonc1C(=O)N[C@H](c1nc2cc([C@@H](NC(=O)CC3CC(F)(F)C3)C3CC3)ccc2[nH]1)C1CCC(F)(F)CC1 [Example 145, N—((S)-(5-((S)-Cyclopropyl(2-(3,3-difluorocyclobutyl)acetamido)methyl)-1H-benzo[d]imidazol-2-yl)(4,4-difluorocyclohexyl)methyl)-4-methyl-1,2,5-oxadiazole-3-carboxamide]
- IC50 (IL-17A : IL-17RA binding): > 100 nM
- IC50 [1]: > 100 nM
